Data as given in ChEMBL document CHEMBL1240316, “An oxidation-sensing mechanism is used by the global regulator MgrA in Staphylococcus aureus” (2006).
≈ marks a conversion by molar mass, not a printed value. Calls of active or inactive are those of the source. The calls are words filed in the database; no cut-off is given here.

How the values were obtained:
Staphylococcus aureus [1] = assay: Antimicrobial activity against Staphylococcus aureus; type: functional
Staphylococcus aureus [2] = assay: Antimicrobial activity against Staphylococcus aureus expressing mgrA C12S mutant gene; type: functional
Staphylococcus aureus [3] = assay: Antimicrobial activity against Staphylococcus aureus assessed as visible growth at 0.35 ug/ml after 24 hrs in presence of 20 uM paraquat; type: functional, organism-based
Staphylococcus aureus [4] = assay: Antimicrobial activity against Staphylococcus aureus assessed as visible growth at 0.55 ug/ml after 24 hrs in presence of 20 uM paraquat; type: functional, organism-based
Staphylococcus aureus [5] = assay: Antimicrobial activity against Staphylococcus aureus assessed as visible growth at 0.75 ug/ml after 24 hrs; type: functional, organism-based
Staphylococcus aureus [6] = assay: Antimicrobial activity against Staphylococcus aureus assessed as visible growth at 0.75 ug/ml after 24 hrs in presence of 20 uM paraquat; type: functional, organism-based
Staphylococcus aureus [7] = assay: Antimicrobial activity against Staphylococcus aureus expressing mgrA C12S mutant gene assessed as visible growth at 0.25 ug/ml after 24 hrs in presence of 20 uM paraquat; type: functional, organism-based
Staphylococcus aureus [8] = assay: Antimicrobial activity against Staphylococcus aureus expressing mgrA C12S mutant gene assessed as visible growth at 0.45 ug/ml after 24 hrs in presence of 20 uM paraquat; type: functional, organism-based
Staphylococcus aureus [9] = assay: Antimicrobial activity against Staphylococcus aureus expressing mgrA C12S mutant gene assessed as visible growth at 0.65 ug/ml after 24 hrs; type: functional, organism-based
Staphylococcus aureus [10] = assay: Antimicrobial activity against Staphylococcus aureus expressing mgrA C12S mutant gene harboring pYJ335-His-mgrA C12S assessed as highest concentration at which growth was visible after 24 hrs; type: functional
Staphylococcus aureus [11] = assay: Antimicrobial activity against Staphylococcus aureus expressing mgrA C12S mutant gene harboring Pyj335-His-mgrA C12S assessed as highest concentration at which growth was visible after 24 hrs in presence of 20 uM paraquat; type: functional
Staphylococcus aureus [12] = assay: Antimicrobial activity against Staphylococcus aureus expressing mgrA C12S mutant gene harboring plasmid Pyj335 assessed as highest concentration at which growth was visible after 24 hrs; type: functional
Staphylococcus aureus [13] = assay: Antimicrobial activity against Staphylococcus aureus expressing mgrA C12S mutant gene harboring pYJ335 assessed as highest concentration at which growth was visible after 24 hrs in presence of 20 uM paraquat; type: functional
Staphylococcus aureus [14] = assay: Antimicrobial activity against Staphylococcus aureus expressing mgrAC12S mutant gene harboring plasmid Pyj335-His-mgrA C12S assessed as highest concentration at which growth was visible after 24 hrs in presence of 20 uM paraquat; type: functional
Staphylococcus aureus [15] = assay: Antimicrobial activity against Staphylococcus aureus expressing mgrAC12S mutant gene assessed as highest concentration at which growth was visible after 24 hrs; type: functional
Staphylococcus aureus [16] = assay: Antimicrobial activity against Staphylococcus aureus expressing mgrAC12S mutant gene assessed as highest concentration at which growth was visible after 24 hrs in presence of 20 uM paraquat; type: functional
Staphylococcus aureus [17] = assay: Antimicrobial activity against Staphylococcus aureus assessed as highest concentration at which growth was visible after 24 hrs; type: functional
Staphylococcus aureus [18] = assay: Antimicrobial activity against Staphylococcus aureus assessed as highest concentration at which growth was visible after 24 hrs in presence of 20 uM paraquat; type: functional
Staphylococcus aureus [19] = assay: Antimicrobial activity against Staphylococcus aureus expressing mgrA C12S mutant gene harboring plasmid Pyj335 assessed as visible growth at 0.20 ug/ml after 24 hrs in presence of 100 uM hydrogen peroxide; type: functional, organism-based
Staphylococcus aureus [20] = assay: Antimicrobial activity against Staphylococcus aureus assessed as visible growth at 0.20 ug/ml after 24 hrs in presence of 25 uM paraquat; type: functional, organism-based
Staphylococcus aureus [21] = assay: Antimicrobial activity against Staphylococcus aureus expressing mgrA C12S mutant gene harboring plasmid Pyj335 assessed as visible growth at 0.25 ug/ml after 24 hrs in presence of 20 uM paraquat; type: functional, organism-based
Staphylococcus aureus [22] = assay: Antimicrobial activity against Staphylococcus aureus expressing mgrA C12S mutant gene harboring plasmid Pyj335 assessed as visible growth at 0.35 ug/ml after 24 hrs in presence of 20 uM paraquat; type: functional, organism-based
Staphylococcus aureus [23] = assay: Antimicrobial activity against Staphylococcus aureus expressing mgrA C12S mutant gene harboring plasmid Pyj335 assessed as visible growth at 0.55 ug/ml after 24 hrs in presence of 20 uM paraquat; type: functional, organism-based
Staphylococcus aureus [24] = assay: Antimicrobial activity against Staphylococcus aureus expressing mgrA C12S mutant gene harboring plasmid Pyj335 assessed as visible growth at 0.75 ug/ml after 24 hrs; type: functional, organism-based
Staphylococcus aureus [25] = assay: Antimicrobial activity against Staphylococcus aureus expressing mgrA C12S mutant gene harboring Pyj335-His-mgrA assessed as visible growth at 0.65 ug/ml after 24 hrs in presence of 20 uM paraquat; type: functional, organism-based
Staphylococcus aureus [26] = assay: Antimicrobial activity against Staphylococcus aureus assessed as visible growth at 1 ug/ml after 24 hrs in presence of 20 uM paraquat; type: functional, organism-based
Staphylococcus aureus [27] = assay: Antimicrobial activity against Staphylococcus aureus assessed as visible growth at 1.8 ug/ml after 24 hrs in presence of 20 uM paraquat; type: functional, organism-based
Staphylococcus aureus [28] = assay: Antimicrobial activity against Staphylococcus aureus assessed as visible growth at 2.6 ug/ml after 24 hrs in presence of 20 uM paraquat; type: functional, organism-based
Staphylococcus aureus [29] = assay: Antimicrobial activity against Staphylococcus aureus expressing mgrA C12S mutant gene assessed as visible growth at 0.6 ug/ml after 24 hrs in presence of 20 uM paraquat; type: functional, organism-based
Staphylococcus aureus [30] = assay: Antimicrobial activity against Staphylococcus aureus expressing mgrA C12S mutant gene assessed as visible growth at 1.4 ug/ml after 24 hrs; type: functional, organism-based
Staphylococcus aureus [31] = assay: Antimicrobial activity against Staphylococcus aureus expressing mgrA C12S mutant gene harboring plasmid Pyj335-His-mgrA assessed as visible growth at 1.1 ug/ml after 24 hrs in presence of 100 uM hydrogen peroxide; type: functional, organism-based
Staphylococcus aureus [32] = assay: Antimicrobial activity against Staphylococcus aureus expressing mgrAC12S mutant gene harboring plasmid Pyj335 assessed as visible growth at 1.1 ug/ml after 24 hrs in presence of 100 uM hydrogen peroxide; type: functional, organism-based
Staphylococcus aureus [33] = assay: Antimicrobial activity against Staphylococcus aureus expressing mgrA C12S mutant gene assessed as visible growth at 1.1 ug/ml after 24 hrs; type: functional, organism-based
Staphylococcus aureus [34] = assay: Antimicrobial activity against Staphylococcus aureus expressing mgrAC12S mutant gene assessed as visible growth at 1.1 ug/ml after 24 hrs in presence of 100 uM hydrogen peroxide; type: functional, organism-based
Staphylococcus aureus [35] = assay: Antimicrobial activity against Staphylococcus aureus expressing mgrA C12S mutant gene harboring Pyj335-His-mgrA assessed as visible growth at 1.1 ug/ml after 24 hrs in presence of 25 uM paraquat; type: functional, organism-based
Staphylococcus aureus [36] = assay: Antimicrobial activity against Staphylococcus aureus expressing mgrA C12S mutant gene assessed as visible growth at 1.8 ug/ml after 24 hrs in presence of 20 uM paraquat; type: functional, organism-based
Staphylococcus aureus [37] = assay: Antimicrobial activity against Staphylococcus aureus expressing mgrA C12S mutant gene harboring plasmid Pyj335 assessed as visible growth at 1 ug/ml after 24 hrs; type: functional, organism-based
Staphylococcus aureus [38] = assay: Antimicrobial activity against Staphylococcus aureus expressing mgrA C12S mutant gene harboring plasmid Pyj335 assessed as visible growth at 1 ug/ml after 24 hrs in presence of 20 uM paraquat; type: functional, organism-based
Staphylococcus aureus [39] = assay: Antimicrobial activity against Staphylococcus aureus expressing mgrA C12S mutant gene harboring plasmid Pyj335 assessed as visible growth at 2.6 ug/ml after 24 hrs in presence of 20 uM paraquat; type: functional, organism-based
Staphylococcus aureus [40] = assay: Antimicrobial activity against Staphylococcus aureus expressing mgrA C12S mutant gene harboring Pyj335-His-mgrA assessed as visible growth at 1.4 ug/ml after 24 hrs in presence of 20 uM paraquat; type: functional, organism-based

## O=C(O)c1cn(C2CC2)c2cc(N3CCNCC3)c(F)cc2c1=O [CIPROFLOXACIN]
Staphylococcus aureus [1]
  MIC: 0.35 µg/mL (≈ 1.06 µM)
Staphylococcus aureus [2]
  MIC: 0.7 µg/mL (≈ 2.11 µM)
Staphylococcus aureus [3]
  Activity: inactive
Staphylococcus aureus [4]
  Activity: Active
Staphylococcus aureus [5]
  Activity: Active
Staphylococcus aureus [6]
  Activity: Active
Staphylococcus aureus [7]
  Activity: inactive
Staphylococcus aureus [8]
  Activity: inactive
Staphylococcus aureus [9]
  Activity: inactive
Staphylococcus aureus [10]
  Activity: 0.35 µg/mL
Staphylococcus aureus [11]
  Activity: 0.35 µg/mL
Staphylococcus aureus [12]
  Activity: 0.65 µg/mL
Staphylococcus aureus [13]
  Activity: 0.65 µg/mL
Staphylococcus aureus [14]
  Activity: 0.55 µg/mL
Staphylococcus aureus [15]
  Activity: 0.65 µg/mL
Staphylococcus aureus [16]
  Activity: 0.65 µg/mL
Staphylococcus aureus [17]
  Activity: 0.25 µg/mL
Staphylococcus aureus [18]
  Activity: 0.45 µg/mL
Staphylococcus aureus [19]
  Activity: inactive
Staphylococcus aureus [20]
  Activity: Active
Staphylococcus aureus [21]
  Activity: inactive
Staphylococcus aureus [22]
  Activity: inactive
Staphylococcus aureus [23]
  Activity: inactive
Staphylococcus aureus [24]
  Activity: Active
Staphylococcus aureus [25]
  Activity: Active

## CN[C@H](CC(C)C)C(=O)N[C@H]1C(=O)N[C@@H](CC(N)=O)C(=O)N[C@H]2C(=O)N[C@H]3C(=O)N[C@H](C(=O)N[C@H](C(=O)O)c4cc(O)cc(O)c4-c4cc3ccc4O)[C@H](O)c3ccc(c(Cl)c3)Oc3cc2cc(c3O[C@@H]2O[C@H](CO)[C@@H](O)[C@H](O)[C@H]2O[C@H]2C[C@](C)(N)[C@H](O)[C@H](C)O2)Oc2ccc(cc2Cl)[C@H]1O [VANCOMYCIN]
Staphylococcus aureus [1]
  MIC: 1.2 µg/mL (≈ 0.828 µM)
Staphylococcus aureus [2]
  MIC: 2.4 µg/mL (≈ 1.66 µM)
Staphylococcus aureus [26]
  Activity: inactive
Staphylococcus aureus [27]
  Activity: Active
Staphylococcus aureus [28]
  Activity: Active
Staphylococcus aureus [29]
  Activity: inactive
Staphylococcus aureus [30]
  Activity: inactive
Staphylococcus aureus [10]
  Activity: 1.4 µg/mL
Staphylococcus aureus [11]
  Activity: 1.4 µg/mL
Staphylococcus aureus [12]
  Activity: 2.2 µg/mL
Staphylococcus aureus [13]
  Activity: 2.2 µg/mL
Staphylococcus aureus [14]
  Activity: 1.8 µg/mL
Staphylococcus aureus [15]
  Activity: 2.2 µg/mL
Staphylococcus aureus [16]
  Activity: 2.2 µg/mL
Staphylococcus aureus [17]
  Activity: 1 µg/mL
Staphylococcus aureus [18]
  Activity: 1.4 µg/mL
Staphylococcus aureus [31]
  Activity: Active
Staphylococcus aureus [32]
  Activity: inactive
Staphylococcus aureus [33]
  Activity: inactive
Staphylococcus aureus [34]
  Activity: inactive
Staphylococcus aureus [35]
  Activity: Active
Staphylococcus aureus [36]
  Activity: inactive
Staphylococcus aureus [37]
  Activity: inactive
Staphylococcus aureus [38]
  Activity: inactive
Staphylococcus aureus [39]
  Activity: Active
Staphylococcus aureus [40]
  Activity: inactive
